# Key:
# [1] = target: T1, HIF-1α (Homo sapiens, UniProt Q16665); experiment: Immunoblot of HIF-1α accumulation in hypoxic MIO-M1 cells; type: cell-based
# T1 construct: endogenous in cells; host or cells: MIO-M1 (immortalized human Müller glial cell line), hypoxia
# Procedure: It has previously been reported that the cells in the inner nuclear layer of the retina that express VEGF in response to hypoxia/ischemia are Müller glial cells (X. Xin et al., Proc Natl Acad Sci USA 110, E3425-3434 (2013)). […] The effects of 32-134D on HIF-1α accumulation persisted up to 16 hours after treatment of cultured cells (FIG. 27B).
# (§1) Pharmacokinetic analysis of 32-134D in the neurosensory retina following intraocular administration was determined by liquid chromatography and tandem mass spectrometry (LC-MS/MS) to quantify the concentration of 32-134D in retinal tissue over 14 days following a single 70-ng intraocular injection of 32-134D (see Methods of all parameters). […] The total exposure (area under the curve or AUClast) was 72.3 nmol*day/g.
# Cells culture and reagents: MIO-M1 cells were a gift from Dr. Astrid Limb (University College London, Institute of Ophthalmology, London, United Kingdom). MIO-M1 and HUVEC cells were cultured in DMEM with 10% (vol/vol) FBS (Quality Biological) and 1% penicillin/streptomycin (Cellgro). Hypoxia chambers were used to expose cells. Evans Blue (E2129) was purchased from Sigma-Aldrich.
# Immunoblot assays and ELISAs: Cell, neurosensory retina, and D120 retinal organoid lysates were subjected to 4-15% gradient SDS/PAGE (Invitrogen). […]
# [2] = Mouse pharmacokinetics in neurosensory retina after intraocular injection; type: in vivo
# Procedure: as §1
# Mouse pharmacokinetics: C57BL/6 mice were administered 32-134D at 70 ng or 280 ng as a single intraocular injection. Mice (at least 3 mice per time point) were euthanized at 1, 3, 7, or 14 days after injection. For the 280-ng dose, a 10-day time point was added. 32-134D was quantified in retina by LC-MS/MS as previously described (S. Salman et al., 2022, J Clin Invest 132) with the following modifications. Retina tissue samples were homogenized in […] of 1×PBS (pH 7.4) before extraction. The standard curve and quality control samples were prepared in 1×PBS as a surrogate matrix. Retina tissue samples were then quantitated in nmol/g as: nominal concentration (nM)×initial dilution ([tissue weight (mg)+volume of solvent (μl)]/tissue weight (mg)). For all samples <10 nM, the value was reported as below the limits of detection. If at least on samples was >10 nM and one was <10 nM, then one half that value (5 nM) was imputed to calculate the concentration for that specimen and utilized in the average and standard deviation calculations.
# Pharmacokinetic parameters: These were calculated from mean concentration-time data using noncompartmental methods in Phoenix WinNonlin version 8.3 (Certara, Princeton, NJ, USA). The Cmax and time to Cmax (Tmax) were the observed values. The AUClast was calculated using the log-linear trapezoidal method to the last quantifiable time point. The λz was determined from at least 3 points on the slope of the terminal phase of the concentration-time profile using a 1/y2 weighting factor. The T1/2 was determined by dividing 0.693 by […]. T1/2 was not reported if the correlation coefficient (r2) for λz was less than 0.9.
# Bioanalytical method for mouse pharmacokinetics: Retina tissue samples were homogenized in 200 μL of 1×PBS (pH 7.4) before extraction. The standard curve and quality control samples were prepared in 1×PBS as a surrogate matrix for all matrices. Tissue homogenate or PBS (25 μL) was added to a borosilicate glass test tube and mixed with 150 μL of acetonitrile containing the internal standard (1 ng/mL of EXP-3179). For blank samples, 150 μL of acetonitrile was added without internal standard. Samples were vortex-mixed and centrifuged (1200×g for 5 minutes at ambient temperature) and transferred to an autosampler vial. […] The column effluent was monitored using an AB Sciex Triple Quadrupole 5500 mass spectrometer. […]
# [3] = tested on: OIR mice; experiment: OIR mouse model, intraocular dosing; type: in vivo
# Procedure: The efficacy of 32-134D following intraocular administration with 70 ng, as well as a lower dose (14 ng), in OIR mice at P12 (J. Zhang et al., J Clin Invest 131 (2021)) was determined.
# The efficacy of 32-134D following IVT administration was also evaluated in the OIR model. At P14, pups were treated with a single intravitreal injection with 32-134D (14 or 70 ng) in 1 ul or with vehicle (DMSO) control. At P17, retinal flat mounts were stained with isolectin-B4 to examine the development of retinal neovascularization.
# Intraocular injections: Intravitreal injections were performed with a PLI-100A Pico-liter Microinjector (Warner Instruments, Harvard Bioscience) using pulled-glass micropipettes. Each micropipette was calibrated to deliver a 1 μl volume on depression of a foot switch. The mice were anesthetized with a ketamine (100 mg/kg) and xylazine (5 mg/kg) mixture, and under a dissecting microscope, the sharpened tip of the micropipette was passed through the sclera just posterior to the limbus into the vitreous cavity and the foot switch was depressed, which caused fluid to penetrate into the vitreous space. Test compound was injected into the vitreous cavity in OIR and STZ mice for vascular permeability test, retinal vasculature and lysates for WB and qPCR analysis.
# OIR mouse model: OIR experiments were performed as previously described (M. Rodrigues et al., 2013, Diabetes 62, 3863-3873). Briefly, C57BL/6 mice were placed in 75% O2 on P7. On P12, the mice were returned to room air and administered either by IP injection (digoxin and test compound) or by intravitreal injection. Mice with body weight less than 6 g at P17 were excluded from analysis. The data were collected from both males and females and the results combined, as there was no apparent difference between sexes. Representative images for selected time points from a minimum of three independent experiments are shown. Data from 3-8 pups were obtained at each time point.
# T1 sequence (Q16665 whole entry): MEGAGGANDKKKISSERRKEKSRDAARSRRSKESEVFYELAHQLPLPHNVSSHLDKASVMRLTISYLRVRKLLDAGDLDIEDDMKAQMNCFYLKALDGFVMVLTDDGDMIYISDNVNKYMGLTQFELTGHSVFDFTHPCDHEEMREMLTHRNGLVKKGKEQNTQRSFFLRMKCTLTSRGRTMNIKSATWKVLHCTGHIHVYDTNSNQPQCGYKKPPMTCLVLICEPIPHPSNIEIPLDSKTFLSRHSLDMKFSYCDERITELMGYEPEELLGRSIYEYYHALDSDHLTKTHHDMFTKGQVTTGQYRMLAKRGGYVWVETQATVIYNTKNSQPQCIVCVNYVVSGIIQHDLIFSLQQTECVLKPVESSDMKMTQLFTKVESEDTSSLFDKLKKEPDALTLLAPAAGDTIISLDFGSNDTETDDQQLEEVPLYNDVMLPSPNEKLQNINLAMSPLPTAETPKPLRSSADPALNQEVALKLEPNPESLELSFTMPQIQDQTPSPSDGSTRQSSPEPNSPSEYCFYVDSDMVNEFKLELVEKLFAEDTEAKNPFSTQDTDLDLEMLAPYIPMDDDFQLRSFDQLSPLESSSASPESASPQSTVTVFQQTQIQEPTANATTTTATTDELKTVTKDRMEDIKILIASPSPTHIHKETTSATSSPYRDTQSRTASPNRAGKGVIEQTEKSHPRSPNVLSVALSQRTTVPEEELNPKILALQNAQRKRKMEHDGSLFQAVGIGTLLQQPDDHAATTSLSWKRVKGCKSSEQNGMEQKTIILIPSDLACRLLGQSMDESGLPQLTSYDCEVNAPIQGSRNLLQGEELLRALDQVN
compound,measurement,setting,value
"Brc1ccc2c(-c3csc(-c4c[nH]c5c(Br)cccc45)n3)c[nH]c2c1 [Compound 32-134D, 4-(6-bromo-1H-indol-3-yl)-2-(7-bromo-1H-indol-3-yl)thiazole]",persistence of effect on HIF-1α accumulation after treatment,[1]; 10 μM,up to 16 hours
same,IC50,"[1]; hypoxia 4 hours, quantitation of immunoblots, read-out: IC50 of HIF-1α protein accumulation",3.5 µM
same,time retina concentration exceeded in vitro IC50 of 3.5 μM,[2]; single 70-ng intraocular injection,5.25 days
same,total exposure (AUClast) in neurosensory retina,"[2]; single 70-ng intraocular injection, 14 days",72.3 nmol·days/g
same,terminal half-life (T1/2) in retina,[2]; single intraocular injection 280 ng,43.2 h
same,AUClast in neurosensory retina,"[2]; single intraocular injection 280 ng, through 14 days",147 nmol·days/g
same,HIF-1α and HIF-2α protein accumulation in retina,"[3]; single 14-ng intraocular injection, P13 and P14",marked reduction
same,"expression of mRNAs encoding VEGF, KDR and other HIF-regulated angiogenic mediators","[3]; single intraocular injection at P12, P17",decreased expression
same,retinal neovascularization,"[3]; single intravitreal injection 14 or 70 ng at P14, P17",significant decrease

# From patent US20250115595A1, “INHIBITORS OF HYPOXIA-INDUCIBLE FACTORS” (The Johns Hopkins University, priority 2021, published 2025)
